Test results published in patent US9481654B2, “Compositions and methods for inhibition of the JAK pathway” (Rigel Pharmaceuticals, Inc., priority 2006, dated 2016).

Key:
Format in all cases: cell-based
[1] = test system: IL-4 stimulated CD23 upregulation in human Ramos B cells (JAK-1/JAK-3, Stat-6); experiment: Assay for Ramos B-Cell Line Stimulated with IL-4 (CD23 upregulation, FACS); conditions: Table III Example 3
Summary of the method: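 Flow cytometry of CD23 staining after 20-24 h IL-4 stimulation (50 units/mL final) of human Ramos B cells in RPMI with 5% serum. Cells, 5×10^4 per point, received compound or DMSO vehicle for 1 h at 37° C prior to stimulation.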

[2] = test system: primary human T-cells (IL-2 induced proliferation, JAK-1/JAK-3, Stat-5); experiment: Primary Human T-Cell Proliferation Assay Stimulated with IL-2 (CellTiter-Glo); conditions: Table III Example 4
Method: In this assay, primary human T-cells derived from peripheral blood and pre-activated through stimulation of the T-cell receptor and CD28, proliferate in culture in response to the cytokine Interleukin-2 (IL-2). This proliferative response is dependent on the activation of JAK1 and JAK3 tyrosine kinases, which phosphorylate and activate the transcription factor Stat-5. The primary human T-cells are incubated with the 2,4-pyrimidinediamine compounds in the presence of IL-2 for 72 hours, and at the assay endpoint intracellular ATP concentrations are measured to assess cell viability. A reduction in cell proliferation compared to control conditions is indicative of inhibition of the JAK kinase pathway.
Primary human T-cells derived from peripheral blood and pre-activated through stimulation of the T-cell receptor and CD28 proliferate in vitro in response to the cytokine Interleukin-2 (IL-2). This proliferative response is dependent on the activation of JAK-1 and JAK-3 tyrosine kinases, which phosphorylate and activate the transcription factor Stat-5.
Human primary T cells were prepared as follows. […] The lymphocytes at the serum: ficoll interface were recovered and washed twice with 5 volumes of PBS. […] The primary T-cells were stimulated for 3 to 4 days, then transferred to a fresh flask and maintained in RPMI with 10% FBS and 40 U/mL IL-2.
Primary T-cells were washed twice with PBS to remove the IL-2 and resuspended in Yssel's medium at 2×10^6 cells/mL. 50 μL of cell suspension containing 80 U/mL IL-2 was added to each well of a flat bottom 96 well black plate. For the unstimulated control, IL-2 was omitted from the last column on the plate. […] 50 μL of 2× compound was added per well in duplicate and the cells were allowed to proliferate for 72 hours at 37° C.
Proliferation was measured using CellTiter-Glo® Luminescent Cell Viability Assay (Promega), which determines the number of viable cells in culture based on quantitation of the ATP present, as an indicator of metabolically active cells. The substrate was thawed and allowed to come to room temperature. After mixing the Cell Titer-Glo reagent and diluent together, 100 μL was added to each well. The plates were mixed on an orbital shaker for two minutes to induce lysis and incubated at room temperature for an additional ten minutes to allow the signal to equilibrate.

[3] = test system: IFNγ induced ICAM-1 (CD54) up-regulation in U937 human monocytic cells (JAK/Stat pathway); experiment: U937 IFNγ ICAM1 FACS Assay; conditions: Table III Example 6, 10 ng/mL IFNγ, 18-24 hours
Excerpt: A549 lung epithelial cells and U937 cells up-regulate ICAM-1 (CD54) surface expression in response to a variety of different stimuli. Therefore, using ICAM-1 expression as readout, test compound effects on different signaling pathways can be assessed in the same cell type. Stimulation with IL-1β through the IL-1β receptor activates the TRAF6/NFκB pathway resulting in up-regulation of ICAM-1. IFNγ induces ICAM-1 up-regulation through activation of the JAK1/JAK2 pathway. The up-regulation of ICAM-1 can be quantified by flow cytometry across a compound dose curve and EC50 values are calculated. Exemplary assays of this type are described in greater detail in Examples 5 and 6. U937 human monocytic cells up-regulate ICAM-1 (CD54) surface expression in response to a variety of different stimuli. Therefore, using ICAM-1 expression as readout, compound effects on different signaling pathways can be assessed in the same cell type. IFNγ up-regulates ICAM-1 through activation of the JAK/Stat pathway. In this example, the up-regulation of ICAM-1 by IFNγ was assessed. […] The cells were then plated at a concentration of 100,000 cells per 160 μL in 96 well flat bottom plates. The test compounds were then diluted as follows: 10 mM test compound was diluted 1:5 in DMSO (3 μL 10 mM test compound in 12 μL DMSO), followed by a 1:3 serial dilution of test compound in DMSO (6 μL test compound serially diluted into 12 μL DMSO to give 3-fold dilutions). […] For control wells, 4 μL of DMSO was diluted into 76 μL 10% RPMI. […] The cells and compounds were then pre-incubated for 30 minutes at 37° C. with 5% CO2. […] The cells were kept under conditions for stimulation for 18-24 hours at 37° C. with 5% CO2. […] Cells were spun down at 1000 rpm for 5 minutes at 4° C., following which the supernatant was removed. […] The cells were then incubated on ice in the dark for 30 minutes. […] After suspension, the cells were centrifuged at 1000 rpm for 5 min at 4° C. […] Detection was performed using a BD LSR I System Flow Cytometer, purchased from BD Biosciences of San Jose, Calif. The live cells were gated for live scatter and the geometric mean of ICAM-APC was measured (Becton-Dickinson CellQuest software version 3.3, Franklin Lakes, N.J.). Both % live cells and ICAM-1 expression was analyzed. The assays for the test compounds were carried out in parallel with a control compound of known activity.

Compound	IC50 ([1]; Homo sapiens, Ramos) [nM]	IC50 ([2]; Homo sapiens, T-cell) [nM]	IC50 ([3]; Homo sapiens, U-937) [nM]	IC50 [1] [nM]	IC50 [2] [nM]	IC50 [3] [nM]
C#CCNS(=O)(=O)Cc1cccc(Nc2nc(Nc3cccc(S(N)(=O)=O)c3)ncc2F)c1 [Compound I-3, N2-(3-Aminosulfonylphenyl)-5-fluoro-N4-[3-(prop-2-ynylaminosulfonylmethyl)phenyl]-2,4-pyrimidinediamine]	227	458	4530			
CCS(=O)(=O)NCc1ccc(Nc2nc(Nc3ccc(S(N)(=O)=O)cc3)ncc2F)cc1 [Compound I-8, N2-(4-aminosulfonyl)phenyl-N4-(4-ethylsulfonylaminomethyl)phenyl-5-fluoro-2,4-pyrimidinediamine]				235	275	3250
CCS(=O)(=O)NCc1ccc(Nc2nc(Nc3cccc(S(N)(=O)=O)c3)ncc2F)cc1 [Compound I-9, N2-(3-aminosulfonyl)phenyl-N4-(4-ethylsulfonylaminomethyl)phenyl-5-fluoro-2,4-pyrimidinediamine]				80.1	70.2	993
CCS(=O)(=O)NCc1cccc(Nc2nc(Nc3ccc(S(N)(=O)=O)cc3)ncc2F)c1 [Compound I-11, N2-(4-aminosulfonyl)phenyl-N4-(3-ethylsulfonylaminomethyl)phenyl-5-fluoro-2,4-pyrimidinediamine]				250	588	2790
CCS(=O)(=O)NCCc1ccc(Nc2nc(Nc3ccc(S(N)(=O)=O)cc3)ncc2F)cc1 [Compound I-14, N2-(4-aminosulfonyl)phenyl-N4-[4-(2-ethylsulfonylamino)ethyl]phenyl-5-fluoro-2,4-pyrimidinediamine]				144	835	5270
CCS(=O)(=O)NCCc1ccc(Nc2nc(Nc3cccc(S(N)(=O)=O)c3)ncc2F)cc1 [Compound I-15, N2-(3-aminosulfonyl)phenyl-N4-[4-(2-ethylsulfonylamino)ethyl]phenyl-5-fluoro-2,4-pyrimidinediamine]				65.8	184	3110
CCCN(Cc1ccc(Nc2nc(Nc3cccc(S(N)(=O)=O)c3)ncc2F)cc1)S(=O)(=O)CC [Compound I-18, N2-(3-aminosulfonyl)phenyl-N4-[4-(N-ethylsulfonyl-N-propylamino)methyl]phenyl-5-fluoro-2,4-pyrimidinediamine]				107	272	1290
CCCN(Cc1ccc(Nc2nc(Nc3ccc(C)c(S(N)(=O)=O)c3)ncc2F)cc1)S(=O)(=O)CC [Compound I-19, N2-(3-aminosulfonyl-4-methyl)phenyl-N4-[4-(N-ethylsulfonyl-N-propylamino)methyl]phenyl-5-fluoro-2,4-pyrimidinediamine]				148	494	1640
CCS(=O)(=O)NCc1ccc(Nc2nc(Nc3ccc(S(N)(=O)=O)cc3)ncc2C)cc1 [Compound I-20, N2-(4-aminosulfonyl)phenyl-N4-(4-ethylsulfonylaminomethyl)phenyl-5-methyl-2,4-pyrimidinediamine]				73.6	46.1	621
CCS(=O)(=O)NCc1ccc(Nc2nc(Nc3ccc(C)c(S(N)(=O)=O)c3)ncc2C)cc1 [Compound I-22, N2-(3-aminosulfonyl-4-methyl)phenyl-N4-(4-ethylsulfonylaminomethyl)phenyl-5-methyl-2,4-pyrimidinediamine]				25.9	82.2	207
NS(=O)(=O)c1ccc(Nc2ncc(F)c(Nc3ccc(CNS(=O)(=O)C4CC4)cc3)n2)cc1 [Compound I-23, N2-(4-aminosulfonyl)phenyl-N4-(4-cyclopropylsulfonylaminomethyl)phenyl-5-fluoro-2,4-pyrimidinediamine]				126	198	3850
NS(=O)(=O)c1cccc(Nc2ncc(F)c(Nc3ccc(CNS(=O)(=O)C4CC4)cc3)n2)c1 [Compound I-24, N2-(3-aminosulfonyl)phenyl-N4-(4-cyclopropylsulfonylaminomethyl)phenyl-5-fluoro-2,4-pyrimidinediamine]				59.2	32	508
Cc1ccc(Nc2ncc(F)c(Nc3ccc(CNS(=O)(=O)C4CC4)cc3)n2)cc1S(N)(=O)=O [Compound I-25, N2-(3-aminosulfonyl-4-methyl)phenyl-N4-(4-cyclopropylsulfonylaminomethyl)phenyl-5-fluoro-2,4-pyrimidinediamine]				69	63.9	363
CCS(=O)(=O)N[C@@H](C)c1ccc(Nc2nc(Nc3ccc(C)c(S(N)(=O)=O)c3)ncc2F)cc1 [Compound I-28, N2-(3-aminosulfonyl-4-methyl)phenyl-N4-[4-(1S-ethylsulfonylamino)ethyl]phenyl-5-fluoro-2,4-pyrimidinediamine]				115	376	1110
CCS(=O)(=O)N[C@H](C)c1ccc(Nc2nc(Nc3ccc(C)c(S(N)(=O)=O)c3)ncc2F)cc1 [Compound I-31, N2-(3-aminosulfonyl-4-methyl)phenyl-N4-[4-(1R-ethylsulfonylamino)ethyl]phenyl-5-fluoro-2,4-pyrimidinediamine]				104	283	1020
NS(=O)(=O)c1cccc(Nc2ncc(F)c(Nc3cccc(CNS(=O)(=O)C4CC4)c3)n2)c1 [Compound I-33, N2-(3-aminosulfonyl)phenyl-N4-(3-cyclopropylsulfonylaminomethyl)phenyl-5-fluoro-2,4-pyrimidinediamine]				102	314	1410
NS(=O)(=O)c1cccc(Nc2ncc(F)c(Nc3ccc(CNS(=O)(=O)c4cccs4)cc3)n2)c1 [Compound I-36, N2-(3-aminosulfonyl)phenyl-5-fluoro-N4-[4-(thiophen-2-yl)sulfonylaminomethyl]phenyl-2,4-pyrimidinediamine]				40.8	63.9	326
CCS(=O)(=O)NCCc1ccc(Nc2nc(Nc3ccc(S(N)(=O)=O)cc3)ncc2C)cc1 [Compound I-38, N2-(4-aminosulfonyl)phenyl-N4-[4-(2-ethylsulfonylamino)ethyl]phenyl-5-methyl-2,4-pyrimidinediamine]				122	190	855
